Read-outs that look alike come from different tables or passages of the source.
How the values were obtained:
[1] = test system: human MPNST cell line S462; experiment: S462 cell viability (CellTiter-Glo, 72 h); format: cell-based; settings: for toxicity to S462 / rescue by nicotinamide: 10% FBS Nam-free DMEM; for rescue by nicotinamide: comparison of vacor, 3-AP, tiazofurin and 9
Text: This similarity, in addition to the scaffold's particular sensitivity to modifications around the pyridinyl ring led us to hypothesize that the activity of compounds 1 and 9 may depend on the concentration of Nam in the media. To test this hypothesis, we analyzed the activity of both compounds in media supplemented with increasing concentrations of Nam. […] Given that Nam inhibited compound activity, we considered Nam concentrations in basal culture conditions (DMEM supplemented with 10% fetal bovine serum or FBS) as compared to physiological levels. Nam levels in human serum are estimated to be in the 4 μM range.^5 In contrast, DMEM alone contains […] of Nam and the concentration in 10% FBS is expected to range between 0.574-1.56 μM.^6 To more closely reflect physiologic levels of Nam, we evaluated the activity of these compounds in cells grown in DMEM lacking Nam (Nam-free DMEM), so that the only exogenous Nam derives from 10% FBS. […] These observations indicate that the potency of these compounds is in the nanomolar range when tested in the presence of physiological levels of Nam.
We thus re-assessed the structure activity relationship of compound 21 analogs in Nam-free DMEM supplemented with or without 100 μM Nam (see appendix below: Synthesis, characterization and activity of micromolar and nanomolar active nicotinamide derivatives). […] Particularly notable, even in Nam-depleted conditions, all active analogs retained the same 3-pyridinyl ring as Nam, reinforcing the relationship between structural resemblance to Nam and compound efficacy.
In 96-well assay plates (Corning #2903), 2,000 cells were plated per well in 100 μL of medium and allowed to adhere overnight. The next day, compounds or Nam suspended in DMSO were dispensed to the assayed wells using a D300e Digital Dispenser (Tecan). All wells were normalized to 0.5% DMSO. 72 hours after incubation at 37 °C in 5% CO2, cell viability was assayed using an ATP-based luminescent viability assay, CellTiter-Glo (Promega #G8462). CellTiter-Glo substrate was mixed 1:1 with phosphate-buffered saline (PBS) supplemented with 1% Triton X-100, and 40 μL of this mixture was added to the assay wells. After the plates were shaken on a microplate shaker for 10 minutes at room temperature, luminescence was recorded using a Synergy 2 Microplate Reader or Cytation 5 plate reader (BioTek). In Prism 9 software (GraphPad), ten-point dose response curves were plotted with baseline-correction to the vehicle control well, and IC50 values were calculated by curve fitting using asymmetric (five parameter), least squares fit.

SARM1 = experiment: Cytotoxicity in SARM1-knockout versus wild type cells; format: cell-based; settings: SARM1-knockout vs wild type
Text: (§1) Given that vacor, 3-AP, and compound 21 are all metabolized to toxic, NAD-like derivatives through NAMPT and NMNAT, we hypothesized that their anti-cancer activity may also depend on SARM1. To test this, we compared the toxic effects of vacor, 3-AP, and 9 in either wild type cells or cells in which we used CRISPR to silence SARM1. […] These observations highlight that even though these different scaffolds are toxified through the same mechanism, the resulting metabolites may have different activities. We next co-titrated guanosine, which is known to rescue tiazofurin by bypassing IMPDH in guanylate synthesis, with each of the above small molecules. […] To test this hypothesis, we set up in vitro reactions with different combinations of 9, NAMPT and NMNAT. After incubation, metabolites were extracted, reconstituted in aqueous solution and then co-incubated with an established IMPDH2 enzyme assay.

IMPDH = experiment: Guanosine co-titration rescue; format: cell-based; settings: guanosine co-titrated
Text: as §1

[2] = test system: NMNAT1 or alcohol dehydrogenase; experiment: Counter screen with NMN in place of NAM; format: biochemical; settings: role: inhibitor; 50 μM NMN substituted for NAM
Protocol: NAMPT activity was measured using a coupled-enzyme assay previously described [Revollo, 2014]. Briefly, reactions consisting of 50 mM Tris pH 8, 0.4 mM PRPP, 2.5 mM ATP, 12 mM MgCl2, 0.02% BSA, 1 μM NAMPT, 77 nM NMNAT1, 10 mM semicarbazide, 30 μg/ml alcohol dehydrogenase were set up in a 384-well plate (50 μl/well). […] The reactions were started by addition of 50 μM NAM. Fluorescence due to NADH formation by alcohol dehydrogenase was measured in a BioTek Cytation 5 plate reader (Agilent, USA) set up for excitation at λ=340 nm and detection of emission at λ=460 nm. To counter screen for NMNAT1 or alcohol dehydrogenase inhibition, the assay was set up above but substituting 50 μM NMN (substrate for NMNAT1) for NAM. No inhibition of was observed under these conditions.

iHCT116 cells = experiment: Forward genetics resistance selection (IAA-inducible mutagenesis); format: cell-based
Text: Second, we screened for resistance to 9 in iHCT116 cells, a system that uses inducible mutagenesis and forward genetics to find compound-resistant mutations and thus can reveal both loss of function and gain of function alleles that suppress activity. The iHCT116 system is a barcoded cell line in which we temporally control mutagenesis by the addition of indole acetic acid (IAA) mediated degradation of the mismatch repair protein MLH1.^12 MLN4924 is a small molecule toxin that we use as a positive control to verify that IAA treatment leads to increased mutations. By degrading MLH1 and increasing the overall mutation rate, IAA treatment increases the frequency of UBA3 mutations, leading to a higher rate of MLN4924 resistance. […] Having previously established a relationship between either NMNAT1 levels or NAMPT activity and compound resistance, we analyzed the levels of both enzymes in multiple resistant clones that harbored unique barcode sequences. […] To test whether reduced NMNAT1 levels in these clones contributed to resistance, we ectopically expressed NMNAT1 in either the parental cells or a representative resistant clone with low NMNAT1 expression.

[3] = [nicotinamide] 0 μM, Nam-free DMEM, read-out: IC50 (μM), [nicotinamide] 0 μM
[4] = [nicotinamide] 33 μM, read-out: IC50 (μM), [nicotinamide] 33 μM
[5] = [nicotinamide] 100 μM, read-out: IC50 (μM), [nicotinamide] 100 μM
[6] = S462, commercial DMEM, highest dose tested 50 μM, read-out: IC50

| SMILES | IC50 [1, 3] | IC50 [1, 4] | IC50 [1, 5] | other results |
| --- | --- | --- | --- | --- |
| Cc1csc(C(=O)Nc2cccnc2)c1 | 0.302 µM | > 50 µM | > 50 µM | – |
| O=C(Nc1cccnc1)c1ccccc1 | 0.064 µM | 16.8 µM | > 50 µM | – |
| O=C(Nc1cccnc1)c1ccccn1 | 0.992 µM | > 50 µM | > 50 µM | – |
| O=C(Nc1cccnc1)c1ccco1 | 0.022 µM | > 50 µM | > 50 µM | – |
| O=C(Nc1cccnc1)c1cccnn1 | 18 µM | > 50 µM | > 50 µM | – |
| O=C(Nc1cccnc1)c1ccoc1 | 0.948 µM | > 50 µM | > 50 µM | – |
| Cc1ncsc1C(=O)Nc1cccnc1 | – | > 50 µM | > 50 µM | – |
| O=C(Nc1cccnc1)c1ccc[nH]1 | 0.08 µM | > 50 µM | > 50 µM | – |
| O=C(Nc1cccnc1)c1ccc(Br)s1 | 0.234 µM | 15.6 µM | > 50 µM | – |
| O=C(Nc1cccnc1)c1ncc[nH]1 | 22.4 µM | > 50 µM | > 50 µM | – |
| O=C(Nc1cccnc1)c1ccc(Cl)cc1 | 0.921 µM | > 50 µM | > 50 µM | – |
| O=C(Nc1cccnc1)c1cc2ccccc2s1 | 0.249 µM | 21.4 µM | > 50 µM | – |
| COc1ccc(C(=O)Nc2cccnc2)cc1 | 0.686 µM | > 50 µM | > 50 µM | – |
| O=C(Nc1cccnc1)c1nccs1 | 1.88 µM | > 50 µM | > 50 µM | – |
| O=C(Nc1cccnc1)c1ccc(C(F)(F)F)cc1 | 0.771 µM | > 50 µM | > 50 µM | – |
| O=C(Nc1cccnc1)c1ncco1 | 19.5 µM | > 50 µM | > 50 µM | – |
| Cc1ccsc1C(=O)Nc1cccnc1 | 1.08 µM | > 50 µM | > 50 µM | – |
| N#Cc1ccc(C(=O)Nc2cccnc2)s1 | 0.075 µM | 14.2 µM | > 50 µM | – |
| Cc1ccc(C(=O)Nc2cccnc2)s1 | 0.184 µM | > 50 µM | > 50 µM | – |
| O=C(Nc1cccnc1)c1cc2c(s1)CCCC2 | 0.763 µM | > 50 µM | > 50 µM | – |
| COc1cccc(C(=O)Nc2cccnc2)c1 | 2.36 µM | > 50 µM | > 50 µM | – |
| O=C(Nc1cncc(F)c1)c1cccs1 | – | > 50 µM | > 50 µM | – |
| Cc1ccccc1C(=O)Nc1cccnc1 | 14.7 µM | > 50 µM | > 50 µM | – |
| N#Cc1cncc(NC(=O)c2cccs2)c1 | – | > 50 µM | > 50 µM | – |
| O=C(Nc1cnc(Cl)c(Cl)c1)c1cccs1 | 8.76 µM | > 50 µM | 42.4 µM | – |

| SMILES | IC50 [1, 3] | IC50 [1, 4] | IC50 [1, 5] | other results |
| --- | --- | --- | --- | --- |
| O=C(Nc1ccon1)c1cccnc1 | 2.73 µM | > 50 µM | > 50 µM | – |
| O=C(Nc1ccc(Br)nc1)c1cccs1 | 8.5 µM | > 50 µM | > 50 µM | – |
| O=C(Nc1ccccc1)c1cccnc1 | 0.024 µM | 13.1 µM | > 50 µM | – |
| N#Cc1ccc(NC(=O)c2cccs2)cn1 | 2.78 µM | > 50 µM | > 50 µM | – |
| CCOC(=O)c1ccsc1NC(=O)c1cccnc1 | – | > 50 µM | > 50 µM | – |
| O=C(Nc1cc(-c2ccccc2)cs1)c1cccnc1 | 2.46 µM | – | 39.6 µM | – |
| Cc1sc(NC(=O)c2cccnc2)c(C#N)c1C | – | – | > 50 µM | – |
| CCOC(=O)c1ccc(NC(=O)c2cccnc2)s1 | 0.23 µM | – | > 50 µM | – |
| Cc1cc(C#N)c(NC(=O)c2cccnc2)s1 | – | – | > 50 µM | – |
| N#Cc1c(NC(=O)c2cccnc2)sc2c1CCC2 | 5.97 µM | – | 6.1 µM | – |
| Cc1cccc(C(=O)Nc2cccnc2)c1 | 35.7 µM | > 50 µM | > 50 µM | – |
| N#Cc1c(NC(=O)c2cccnc2)sc2c1CCCC2 | 4.74 µM | – | 4.72 µM | – |
| O=C(Nc1nc2cccnc2s1)c1cccnc1 | 23.9 µM | > 50 µM | > 50 µM | – |
| O=C(Nc1ccccc1)c1cccs1 [Compound 2, N-Phenylthiophene-2-carboxamide] | – | – | – | IC50 [1, 6]: > 50 µM |
| O=C(Nc1ccccn1)c1cccs1 [Compound 3, N-(Pyridin-2-yl)thiophene-2-carboxamide] | – | – | – | IC50 [1, 6]: > 50 µM |
| CC(=O)c1cccnc1 [Compound 3-AP, 3-acetylpyridine, reference compound] | – | – | – | toxicity to S462 [1]: toxic to S462; rescue by nicotinamide [1]: rescued by nicotinamide; sensitivity of SARM1-knockout cells (SARM1): equally sensitive; guanosine rescue of toxicity (IMPDH): no rescue |
| O=C(Nc1ccncc1)c1cccs1 [Compound 4, N-(Pyridin-4-yl)thiophene-2-carboxamide] | – | – | – | IC50 [1, 6]: > 50 µM |
| O=C(/C=C/c1cccnc1)NCCCCC1CCN(C(=O)c2ccccc2)CC1 [FK866, reference compound] | – | – | – | inhibition in counter screen [2]: No inhibition |
| NS(=O)(=O)OC[C@@H]1C[C@@H](n2ccc3c(N[C@H]4CCc5ccccc54)ncnc32)C[C@@H]1O [MLN4924, reference compound] | – | – | – | resistant clones (iHCT116 cells; IAA treated (Mut-on)): 33 clones; resistant clones (iHCT116 cells; vehicle (Mut-off)): one |
| O=C(Nc1cccs1)c1cccnc1 [drawing 72] | 0.006 µM | 1.2 µM | > 50 µM | – |
| O=C(Nc1nc2ccccc2s1)c1cccnc1 [drawing 105] | 0.623 µM | – | > 50 µM | – |
| O=C(Nc1nc2ccccc2s1)c1cccnc1 [drawing 111] | 36.2 µM | > 50 µM | > 50 µM | – |
| NC(=O)c1csc([C@@H]2O[C@H](CO)[C@@H](O)[C@H]2O)n1 [tiazofurin, reference compound] | – | – | – | toxicity to S462 [1]: toxic to S462; rescue by nicotinamide [1]: all compounds except tiazofurin were rescued by nicotinamide; guanosine rescue of toxicity (IMPDH): guanosine rescue |
| O=C(NCc1cccnc1)Nc1ccc([N+](=O)[O-])cc1 [vacor, reference compound] | – | – | – | toxicity to S462 [1]: toxic to S462; rescue by nicotinamide [1]: rescued by nicotinamide; resistance of SARM1-knockout cells (SARM1): 3 fold; guanosine rescue of toxicity (IMPDH): no rescue |
